Results as given in ChEMBL document CHEMBL2429712, “Synthesis and cytotoxicity of (3)-3-acetyloxy-5(6)-androsten-7-one oxime and 3,5(6)-androstadien-7-one oxime” (Med Chem Res, 2013).

Tests used:
Assay type in all cases: functional, cell-based
[1] = test system: MCF7; assay: Cytotoxicity against human MCF7 cells after 44 hrs by SRB assay; settings: MCF7, 44 h
[2] = test system: MKN-28; assay: Cytotoxicity against human MKN28 cells after 44 hrs by SRB assay; settings: MKN-28, 44 h
[3] = test system: HeLa; assay: Cytotoxicity against human HeLa cells after 44 hrs by SRB assay
[4] = test system: KB; assay: Cytotoxicity against human KB cells after 44 hrs by SRB assay

SMILES | IC50 [1] [µM] | IC50 [2] [µM] | IC50 [3] [µM] | IC50 [4] [µM]
C[C@@]12CCC[C@H]1[C@@H]1C(=O)C=C3C=CCC[C@]3(C)[C@H]1CC2 | 52.2 | 64.3 | 62.4 | > 80
CC(=O)O[C@H]1CC[C@@]2(C)C(=C/C(=N\O)[C@H]3[C@@H]4CCC[C@@]4(C)CC[C@@H]32)C1 | 10.2 | 18.1 | 12.8 | 26
CC(=O)O[C@H]1CC[C@@]2(C)C(=CC(=O)[C@H]3[C@@H]4CCC[C@@]4(C)CC[C@@H]32)C1 | 39.5 | 48.5 | 34 | 62
COc1cccc2c1C(=O)c1c(O)c3c(c(O)c1C2=O)C[C@@](O)(C(=O)CO)C[C@@H]3O[C@H]1C[C@H](N)[C@H](O)[C@H](C)O1 [DOXORUBICIN] | – | 0.22 | – | 0.028
C[C@@]12CCC[C@H]1[C@@H]1/C(=N\O)C=C3C=CCC[C@]3(C)[C@H]1CC2 | 19.8 | 36.1 | 22.2 | 28.5
